Test results taken from ChEMBL document CHEMBL1149214, “1,2-Diaryl-1-ethanone and pyrazolo [4,3-c] quinoline-4-one as novel selective cyclooxygenase-2 inhibitors” (Bioorg Med Chem Lett, 2004).

Tests used:
[1] = molecular target: T1, Prostaglandin G/H synthase 1 (Ovis aries) (UniProt P05979); experiment: Inhibition of prostaglandin G/H synthase 1 enzyme from ram seminal vesicles by spectrophotometric method at 10 uM
T1 sequence (whole entry): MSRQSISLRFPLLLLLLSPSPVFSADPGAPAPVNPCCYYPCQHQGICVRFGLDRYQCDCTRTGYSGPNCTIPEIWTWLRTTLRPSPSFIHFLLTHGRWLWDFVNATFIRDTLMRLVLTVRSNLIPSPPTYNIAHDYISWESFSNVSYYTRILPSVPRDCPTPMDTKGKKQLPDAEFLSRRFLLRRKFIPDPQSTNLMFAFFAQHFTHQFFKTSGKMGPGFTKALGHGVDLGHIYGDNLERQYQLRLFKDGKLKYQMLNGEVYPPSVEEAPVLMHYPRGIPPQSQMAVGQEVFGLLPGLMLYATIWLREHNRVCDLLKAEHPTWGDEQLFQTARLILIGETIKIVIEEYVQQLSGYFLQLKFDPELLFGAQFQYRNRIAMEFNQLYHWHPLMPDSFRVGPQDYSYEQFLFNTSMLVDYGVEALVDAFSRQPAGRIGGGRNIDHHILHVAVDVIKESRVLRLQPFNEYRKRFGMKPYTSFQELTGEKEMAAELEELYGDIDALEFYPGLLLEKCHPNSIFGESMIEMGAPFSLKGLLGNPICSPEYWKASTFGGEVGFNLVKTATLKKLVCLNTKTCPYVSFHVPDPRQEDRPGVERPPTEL

Rattus norvegicus = experiment: Activity in Carrageenan induced rat paw model at 30 mg/Kg; Range = 25-45%; assay type: functional
[2] = molecular target: T2, Prostaglandin G/H synthase 1 (Ovis aries, UniProt P05979); experiment: Inhibition of prostaglandin G/H synthase 1 enzyme from ram seminal vesicles by spectrophotometric method
T2 sequence (P05979 whole entry): T1 sequence (whole entry)

[3] = molecular target: T3, Prostaglandin G/H synthase 2 (Homo sapiens, UniProt P35354); experiment: Inhibition of human Prostaglandin G/H synthase 2 in sf-9 cells by spectrophotometric method; assay type: cell-based, Sf9
T3 sequence (P35354 whole entry): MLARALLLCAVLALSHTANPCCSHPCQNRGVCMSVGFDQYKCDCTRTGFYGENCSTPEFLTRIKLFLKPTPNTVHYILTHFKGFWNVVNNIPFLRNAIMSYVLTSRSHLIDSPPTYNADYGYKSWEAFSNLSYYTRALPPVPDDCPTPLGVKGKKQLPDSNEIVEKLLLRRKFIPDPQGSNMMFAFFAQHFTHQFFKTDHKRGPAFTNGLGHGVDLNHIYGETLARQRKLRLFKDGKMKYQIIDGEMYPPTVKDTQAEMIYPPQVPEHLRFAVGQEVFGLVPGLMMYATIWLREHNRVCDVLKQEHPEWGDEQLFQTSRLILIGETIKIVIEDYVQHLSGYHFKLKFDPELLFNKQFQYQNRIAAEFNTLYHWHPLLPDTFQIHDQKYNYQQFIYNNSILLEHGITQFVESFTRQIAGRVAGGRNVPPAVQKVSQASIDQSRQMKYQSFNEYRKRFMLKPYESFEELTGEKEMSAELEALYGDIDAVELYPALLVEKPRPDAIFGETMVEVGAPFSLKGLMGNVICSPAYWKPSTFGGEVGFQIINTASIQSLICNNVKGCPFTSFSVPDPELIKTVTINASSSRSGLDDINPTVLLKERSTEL

[4] = molecular target: T3, Prostaglandin G/H synthase 2; experiment: Inhibition of human Prostaglandin G/H synthase 2 in sf-9 cells by spectrophotometric method

Row | SMILES | inhibition [1] | further results
1 | NS(=O)(=O)c1ccc(C(Nc2nccs2)C(=O)c2ccc(F)cc2)cc1 (centres undefined) | -0% | 
2 | NS(=O)(=O)c1ccc(C(Nc2ncccn2)C(=O)c2ccc(F)cc2)cc1 (centres undefined) | -0% | 
3 | Cc1nn(-c2ccc(S(=O)(=O)NCc3ccccc3)cc2)c2c1c(O)nc1ccc([N+](=O)[O-])cc12 | 78% | 
4 | CS(=O)(=O)c1ccc(C(Nc2nccs2)C(=O)c2ccc(F)cc2)cc1 (centres undefined) | -0% | 
5 | CS(=O)(=O)c1ccc(C(=O)C(Nc2nccs2)c2ccccc2)cc1 (centres undefined) | 10% | 
6 | C[S+]([O-])c1ccc(C(=O)C(Nc2nccs2)c2ccccc2)cc1 (centres undefined) | 29% | 
7 | Cc1nn(-c2ccc(S(N)(=O)=O)cc2)c2c1c(O)nc1ccc([N+](=O)[O-])cc12 | 40% | Activity (Rattus norvegicus): <45%
8 | Cc1nn(-c2ccc(S(N)(=O)=O)cc2)c2c1c(O)nc1ccccc12 | 20% | 
9 | Cc1nn(-c2ccc(S(N)(=O)=O)c(CO)c2)c2c1c(O)nc1ccc([N+](=O)[O-])cc12 | -0% | 
10 | NS(=O)(=O)c1ccc(C(Nc2ccccn2)C(=O)c2ccc(F)cc2)cc1 (centres undefined) | 30% | 
11 | C[S+]([O-])c1ccc(C(Nc2cccnc2)C(=O)c2ccc(F)cc2)cc1 (centres undefined) | -0% | IC50 [2]: 50 µM; IC50 [3]: 0.5 µM; Activity (Rattus norvegicus): <45%
12 | Cc1nn(-c2ccccc2)c2c1c(O)nc1ccccc12 | 82% | 
13 | Cc1nn(-c2ccc(S(N)(=O)=O)cc2)c2c1c(=O)[nH]c1ccc([N+](=O)[O-])cc12 |  | IC50 [2]: 4.7 µM; IC50 [4]: 0.24 µM
14 | Cc1nn(-c2ccc(S(N)(=O)=O)c(CO)c2)c2c1c(O)nc1ccccc12 | -0% | 
15 | CSc1ccc(C(=O)C(Nc2ncccc2Cl)c2ccccc2)cc1 (centres undefined) | 53% | 
16 | NS(=O)(=O)c1ccc(C(Nc2nc3ccccc3s2)C(=O)c2ccc(F)cc2)cc1 (centres undefined) | 23% | 
17 | C[S+]([O-])c1ccc(C(Nc2nccs2)C(=O)c2ccc(F)cc2)cc1 (centres undefined) | -0% | IC50 [2]: 500 µM; IC50 [3]: 2.1 µM; Activity (Rattus norvegicus): <45%
18 | Cc1nn(-c2ccccc2)c2c1c(O)nc1ccc([N+](=O)[O-])cc12 | 46% | IC50 [2]: 5 µM; Activity (Rattus norvegicus): <45%; IC50 [4]: 0.55 µM
